{"source": "patent US9289509B2", "about": "“Uses of immunoconjugates targeting CD138” (Biotest AG, priority 2009, dated 2016)", "key": {"[1]": {"tested_on": "Pancreatic tumor tissue (PAXF 736)", "assay": "Pancreas carcinoma xenograft (PAXF 736) in NMRI mice", "conditions": "for T/C (%): day 52"}, "[2]": {"tested_on": "CD138+ OPM2 cells and CD138− Namalwa cells", "assay": "Bystander killing (cell viability assay)", "format": "cell-based"}, "PC-3": {"tested_on": "PC-3", "assay": "Sensitivity of cell lines towards BT062 (IC50)", "format": "cell-based", "conditions": "PC-3 (prostate cancer)"}}}
{"substance": "BT062", "values": [{"measurement": "time to complete remission after tumor implantation", "setting": "[1]; 13.25 mg/kg", "value": 35, "unit": "days"}, {"measurement": "T/C (%)", "setting": "[1]; 13.25 mg/kg", "value": 0.0, "unit": "%"}, {"measurement": "time to complete remission after tumor implantation", "setting": "[1]; 23.85 mg/kg", "value": 28, "unit": "days"}, {"measurement": "T/C (%)", "setting": "[1]; 23.85 mg/kg", "value": 0.0, "unit": "%"}, {"measurement": "mice alive after 52 days", "setting": "[1]; both administration regimes, control group reduced to 1 of eight", "value": "8/8"}, {"measurement": "side effects", "setting": "[1]; mouse, in vivo", "value": "No side effects were observed"}, {"measurement": "tumor regrowth", "setting": "[1]; treatment free observation phase", "value": "no tumor regrowth was detected"}, {"measurement": "killing of CD138-negative cells in coculture (bystander killing)", "setting": "[2]; coculture in round bottom wells, 1×10^−8 to 1×10^−9 M", "value": "also killed the antigen-negative cells in close proximity to the antigen-positive cells"}, {"measurement": "effect on CD138-negative cells", "setting": "[2]; without CD138-positive cells in close proximity", "value": "CD138-negative cells were not affected by the conjugate"}, {"measurement": "IC50", "setting": "PC-3", "value": 0.79, "unit": "nM"}]}
